Measured values as given in PubChem BioAssay AID330 (DTP/NCI, 2004).
Values joined by “and” are separate entries in the source; they are usually repeats but may differ in a detail not shown here. Identical values can stand only once. Toxic doses and inconclusive results are not listed. The calls were made as follows: active = survival T/C of 150% or more; inactive = T/C below 125% in these data. Numbered stars: 1 amine (or outer) side, 2 acyl side, 3 side chain; on linkers, the order of the positions; unused ones are H or OH. Bridge positions count the residues as written; N and C are the ends. Square brackets hold non-standard residues; d marks the D form. Peptide text beside a SMILES is read from it. ξ: configuration not given here. X15 = O=C(/C(=C/c1c[nH]c2ccccc12)N[*:1])[*:2]; X16 = CC(c1c[nH]c2ccccc12)C(N[*:1])C(=O)[*:2]; βAsp = O=C(O)[CH](CC(=O)[*:2])N[*:1]; ξLeu(3ξ-OH) = CC(C)C(O)C(N)C(=O)O; X14 = O=C(C1C(O)CCN1[*:1])[*:2]

Test system: P388 leukemia ip, CD2F1 mice, survival T/C
Experiment: NCI In Vivo Anticancer Drug Screen. Data for tumor model P388 Leukemia (intraperitoneal) in CD2F1 (CDF1) mice
Details: endpoint: median survival time, higher = longer survival
Procedure, shortened: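 Mice carrying the transplanted tumor received test compound or vehicle. Survival was recorded in each group, and the value is the treated-group measurement divided by that of the vehicle-treated control group.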

[1] = dose: 60.0 mg/kg/injection, schedule: Q01DX005 (ip), vehicle: saline with Tween-80
[2] = dose: 120.0 mg/kg/injection, schedule: Q01DX005 (ip), vehicle: saline with Tween-80
[3] = dose: 240.0 mg/kg/injection, schedule: Q01DX005 (ip), vehicle: saline with Tween-80
[4] = dose: 25.0 mg/kg/injection, schedule: Q01DX005 (ip), vehicle: Klucel (hydroxypropylcellulose) (HPC)
[5] = dose: 50.0 mg/kg/injection, schedule: Q01DX005 (ip), vehicle: Klucel (hydroxypropylcellulose) (HPC)
[6] = dose: 100.0 mg/kg/injection, schedule: Q01DX005 (ip), vehicle: Klucel (hydroxypropylcellulose) (HPC)
[7] = dose: 200.0 mg/kg/injection, schedule: Q01DX005 (ip), vehicle: Klucel (hydroxypropylcellulose) (HPC)
[8] = dose: 50.0 mg/kg/injection, schedule: Q01DX009 (ip), vehicle: Klucel (hydroxypropylcellulose) (HPC)
[9] = dose: 100.0 mg/kg/injection, schedule: Q01DX009 (ip), vehicle: Klucel (hydroxypropylcellulose) (HPC)
[10] = dose: 50.0 mg/kg/injection, schedule: Q04DX003 (ip), vehicle: saline with Tween-80
[11] = dose: 100.0 mg/kg/injection, schedule: Q04DX003 (ip), vehicle: saline with Tween-80
[12] = dose: 200.0 mg/kg/injection, schedule: Q04DX003 (ip), vehicle: saline with Tween-80
[13] = dose: 100.0 mg/kg/injection, schedule: Q01DX009 (ip), vehicle: saline with Tween-80
[14] = dose: 200.0 mg/kg/injection, schedule: Q01DX009 (ip), vehicle: saline with Tween-80
[15] = dose: 100.0 mg/kg/injection, schedule: Q01DX001 (ip), vehicle: Klucel (hydroxypropylcellulose) (HPC)

Measured: T/C

Cc1ccc(OP(=O)(Oc2ccc(C)cc2)Oc2ccc(C)cc2)cc1.Cc1ccc(OP(=O)(Oc2ccc(C)cc2)Oc2ccc(C)cc2)cc1.Cc1ccc(OP(=O)(Oc2ccc(C)cc2)Oc2ccc(C)cc2)cc1.Cc1ccc(OP(=O)(Oc2ccc(C)cc2)Oc2ccc(C)cc2)cc1.[Ni+2].[O-][Cl+3]([O-])([O-])O
inactive: dose: 20.0 mg/kg/injection, schedule: Q01DX001 (ip), vehicle: Klucel (hydroxypropylcellulose) (HPC) 100 % of control | dose: 40.0 mg/kg/injection, schedule: Q01DX001 (ip), vehicle: Klucel (hydroxypropylcellulose) (HPC) 106 % of control | dose: 80.0 mg/kg/injection, schedule: Q01DX001 (ip), vehicle: Klucel (hydroxypropylcellulose) (HPC) 97 % of control

CN(C)c1ccc(/C=N/NC(=O)CNC(=O)c2ccccc2)cc1
inactive: [1] 94 % of control | [2] 92 % of control | [3] 96 % of control

CC(=O)c1cc2c(cc1O)OC(C)(C)C=C2
inactive: [4] 101 % of control | [5] 99 % of control | [6] 91 % of control | [7] 92 % of control

CC(=O)CSC1=CC(C)(C)CC1=O
inactive: [5] 96 % of control | [6] 99 % of control | [7] 99 % of control

OCC1OC(n2cnc3c(Cl)ncnc32)CC1O (stereo unspecified)
inactive: dose: 50.0 mg/kg/injection, schedule: Q01DX005 (ip), vehicle: saline 94 % of control | dose: 100.0 mg/kg/injection, schedule: Q01DX005 (ip), vehicle: saline 92 % of control | dose: 200.0 mg/kg/injection, schedule: Q01DX005 (ip), vehicle: saline 102 % of control

CCCCCCCCCCCN1CCS(=O)(=O)CC1
inactive: [8] 100 % of control | [9] 98 % of control | dose: 200.0 mg/kg/injection, schedule: Q01DX009 (ip), vehicle: Klucel (hydroxypropylcellulose) (HPC) 94 % of control

CC(C)C1OC(/C=C/c2ccccc2)OCC1(C)C (stereo unspecified)
inactive: dose: 25.0 mg/kg/injection, schedule: Q04DX003 (ip), vehicle: saline with Tween-80 102 % of control | [10] 102 % of control | [11] 104 % of control | [12] 98 % of control | dose: 400.0 mg/kg/injection, schedule: Q04DX003 (ip), vehicle: saline with Tween-80 102 % of control

CCOC(CNc1cnc(NC(C)=O)[nH]c1=O)OCC
inactive: dose: 25.0 mg/kg/injection, schedule: Q01DX009 (ip), vehicle: saline with Tween-80 102 % of control | dose: 50.0 mg/kg/injection, schedule: Q01DX009 (ip), vehicle: saline with Tween-80 104 % of control | [13] 102 % of control | [14] 112 % of control

O=C1Nc2ccccc2C1NC(=S)Nc1ccc(Br)cc1 (stereo unspecified)
inactive: [1] 91 % of control | [2] 94 % of control | [3] 88 % of control

COc1ccc(C(O)c2cnc(C)n2Cc2ccccc2)cc1 (stereo unspecified)
inactive: [1] 99 % of control | [2] 100 % of control | [3] 94 % of control

CC1NC(=O)C(C(C)O)NC(=O)C(NC(=O)C(CO)NC(=O)CC(N)C(=O)O)C(C)OC(=O)C2C(O)CCN2C(=O)C(C(O)C(C)C)NC(=O)C(C(C)c2c[nH]c3ccccc23)NC(=O)/C(=C/c2c[nH]c3ccccc23)NC(=O)C2C(O)CCN2C(=O)CNC1=O (stereo unspecified) (βAsp-STTAG[X14][X15][X16][ξLeu(3ξ-OH)][X14]; ester 2-C; configuration not given here)
inactive: [13] 105 % of control | [14] 89 % of control | dose: 400.0 mg/kg/injection, schedule: Q01DX009 (ip), vehicle: saline with Tween-80 91 % of control

CC(=O)c1c(O)c2cccc3c2n(c1=O)CCC3
inactive: dose: 60.0 mg/kg/injection, schedule: Q01DX005 (ip), vehicle: Klucel (hydroxypropylcellulose) (HPC) 96 % of control | dose: 120.0 mg/kg/injection, schedule: Q01DX005 (ip), vehicle: Klucel (hydroxypropylcellulose) (HPC) 97 % of control

COC1OCC2(C)OC(c3ccccc3)=NC2C1O (stereo unspecified)
inactive: dose: 100.0 mg/kg/injection, schedule: Q04DX002 (ip), vehicle: Klucel (hydroxypropylcellulose) (HPC) 90 % of control | dose: 200.0 mg/kg/injection, schedule: Q04DX002 (ip), vehicle: Klucel (hydroxypropylcellulose) (HPC) 100 % of control

S=C(SCc1nc(-c2ccc(Cl)cc2)no1)N1CCSCC1
inactive: [1] 97 % of control | [2] 92 % of control | [3] 105 % of control

CC1=C(C)C(=O)c2nn(C)nc2C1=O
inactive: dose: 6.25 mg/kg/injection, schedule: Q01DX001 (ip), vehicle: saline 100 % of control | dose: 12.5 mg/kg/injection, schedule: Q01DX001 (ip), vehicle: saline 98 % of control | dose: 25.0 mg/kg/injection, schedule: Q01DX001 (ip), vehicle: saline 99 % of control

CCOC1(NC(=O)N(C)C)C2CCCC21 (stereo unspecified)
inactive: dose: 25.0 mg/kg/injection, schedule: Q01DX009 (ip), vehicle: Klucel (hydroxypropylcellulose) (HPC) 97 % of control | [8] 97 % of control | [9] 94 % of control

CC(C)=CCC(OC1OC(CO)C(O)C(O)C1N)C1=CC(=O)c2c(O)ccc(O)c2C1=O (stereo unspecified)
inactive: dose: 2.5 mg/kg/injection, schedule: Q04DX002 (ip), vehicle: saline 103 % of control | dose: 5.0 mg/kg/injection, schedule: Q04DX002 (ip), vehicle: saline 111 % of control | dose: 10.0 mg/kg/injection, schedule: Q04DX002 (ip), vehicle: saline 114 % of control | dose: 20.0 mg/kg/injection, schedule: Q04DX002 (ip), vehicle: saline 113 % of control | dose: 40.0 mg/kg/injection, schedule: Q04DX002 (ip), vehicle: saline 111 % of control

O=C(NCCCl)Oc1c(Cl)cc(Cl)cc1Cl
inactive: dose: 12.5 mg/kg/injection, schedule: Q01DX005 (ip), vehicle: Klucel (hydroxypropylcellulose) (HPC) 106 % of control | [4] 104 % of control

CCc1nc(-c2ccccc2)nc2c1nc(Cc1ccccc1)n2Nc1ccccc1
inactive: [15] 88 % of control

c1ccc(C(c2ccccc2)(c2cccs2)N2CCCCC2)cc1
inactive: [15] 99 % of control | dose: 200.0 mg/kg/injection, schedule: Q01DX001 (ip), vehicle: Klucel (hydroxypropylcellulose) (HPC) 94 % of control | dose: 400.0 mg/kg/injection, schedule: Q01DX001 (ip), vehicle: Klucel (hydroxypropylcellulose) (HPC) 96 % of control

CC(=O)N1c2ccccc2C(O)C1OC(=O)c1cccc(Cl)c1 (stereo unspecified)
inactive: [1] 100 % of control | [2] 103 % of control | [3] 89 % of control

O=C1c2ccccc2C(=O)N1c1nncs1
inactive: dose: 100.0 mg/kg/injection, schedule: Q04DX002 (ip), vehicle: saline with Tween-80 99 % of control | dose: 200.0 mg/kg/injection, schedule: Q04DX002 (ip), vehicle: saline with Tween-80 99 % of control | dose: 400.0 mg/kg/injection, schedule: Q04DX002 (ip), vehicle: saline with Tween-80 101 % of control

C=C(C)CC1(CC)C(=O)NC(=S)NC1=O
inactive: [10] 104 % of control | [11] 104 % of control | [12] 86 % of control

Cc1ccc(S(=O)(=O)NCCCCCCNS(=O)(=O)c2ccc(C)cc2)cc1
inactive: [5] 86 % of control and 90 % of control | [6] 89 % of control | [7] 86 % of control and 91 % of control

CCOC(=O)N1CCc2[nH]oc(=O)c2CC1
inactive: dose: 6.25 mg/kg/injection, schedule: Q01DX009 (ip), vehicle: saline 101 % of control and 107 % of control | dose: 12.5 mg/kg/injection, schedule: Q01DX009 (ip), vehicle: saline 110 % of control and 95 % of control | dose: 25.0 mg/kg/injection, schedule: Q01DX009 (ip), vehicle: saline 99 % of control
